The values below come from ChEMBL document CHEMBL1201862, “PubChem BioAssay data set” (2004).

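Growth conditions: 96-well plates. Treatment: test compound, 48 hours, 5 concentrations. Analysis: linear interpolation between bracketing concentrations; unreached endpoints set to highest concentration. GI50 marks 50% less growth.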 Calls of active or inactive are those of the source. Cut-off read from the data, not from the text of the source: active = GI50 up to about 1.1 µM and inactive = higher.

Among the test systems are CAKI-1; CCRF-CEM; HCT-15; HT-29; MOLT-4; NCI-H23; NCI-H460; NCI-H522; OVCAR-3; SF-295; SF-539; SK-MEL-28; SK-MEL-2; SK-OV-3; SNB-19; TK-10; UACC-62; UO-31; LOX IMVI.
Holding throughout (assay): inhibition of tumour cell growth, NCI panel, 48 h

On to `C/C(CN1C(=O)c2ccccc2C1=O)=N\NS(=O)(=O)c1cccc([N+](=O)[O-])c1`, for which the GI50 in the test with CAKI-1 is > 100 µM (inactive); in the test with CCRF-CEM, > 100 µM (inactive); in the test with HCT-15 it was greater than 100 µM; in the test with HT-29, > 100 µM (inactive); in the test on MOLT-4, > 100 µM (inactive); with NCI-H23, > 100 µM (inactive). Besides, the GI50 in the test with NCI-H460, in the test with NCI-H522, in the test on OVCAR-3, in the test on SF-295, in the test on SF-539 and in the test with SK-MEL-28 was > 100 µM (inactive) each time. In addition, the GI50 in the test on SK-MEL-2, with SK-OV-3, with SNB-19, in the test on TK-10, in the test with UACC-62 and in the test with UO-31 was > 100 µM (inactive) each time.

Regarding `Cn1c2ccccc2c(=O)c2c(O)cc3c(c21)C=CC1(CCCCC1)O3`, the GI50 in the test with CAKI-1 was > 10 µM (inactive); in the test on CCRF-CEM, > 10 µM (inactive); in the test on HCT-15, greater than 10 µM; in the test with HT-29, 3.85 µM (inactive); in the test with LOX IMVI, > 10 µM (inactive); in the test on MOLT-4 it was > 10 µM (inactive). In addition, the GI50 in the test on NCI-H23, with NCI-H460, in the test with NCI-H522, with OVCAR-3, in the test on SF-295 and with SF-539 was > 10 µM (inactive) each time. The GI50 in the test on SK-MEL-28, in the test on SK-MEL-2, in the test on SK-OV-3, with SNB-19, in the test with TK-10 and in the test on UACC-62 was > 10 µM (inactive) throughout. Moreover, the GI50 in the test on UO-31 was > 10 µM (inactive).

As to `CCC1(C(=O)OC)CCc2c(OC)ccc(OC)c2C1=O` (centres undefined), the GI50 in the test with CAKI-1 is > 100 µM (inactive); in the test on CCRF-CEM, > 100 µM (inactive); with HCT-15 it was greater than 100 µM; with HT-29, > 100 µM (inactive); in the test on LOX IMVI, > 100 µM (inactive); in the test with MOLT-4, > 100 µM (inactive). Moreover, the GI50 in the test with NCI-H23, in the test with NCI-H460, in the test with NCI-H522, in the test on OVCAR-3, with SF-295 and in the test with SF-539 was > 100 µM (inactive) throughout. Besides, the GI50 in the test on SK-MEL-28, with SK-MEL-2, in the test on SK-OV-3, in the test on SNB-19, in the test with TK-10 and in the test with UACC-62 was > 100 µM (inactive) in each case. The GI50 in the test with UO-31 was > 100 µM (inactive).

As to `C/C(CCn1[nH]c(=O)ccc1=O)=N\NC(=O)C(N)=O`, the GI50 in the test on CAKI-1 was > 100 µM (inactive); in the test on HCT-15, greater than 100 µM; in the test on HT-29, > 100 µM (inactive); with LOX IMVI, > 100 µM (inactive); in the test with NCI-H23, > 100 µM (inactive); with NCI-H460, > 100 µM (inactive). Moreover, the GI50 in the test with NCI-H522, with OVCAR-3, in the test with SF-295, in the test with SF-539, in the test on SK-MEL-28 and with SK-MEL-2 was > 100 µM (inactive) in each case. In addition, the GI50 in the test with SNB-19, in the test on TK-10, in the test with UACC-62 and with UO-31 was > 100 µM (inactive) in each case.

In the case of `COC(=O)C12C3C4C1C1C2C3C41C(=O)O` (centres undefined), the GI50 was > 100 µM (inactive) in the test on CAKI-1; > 100 µM (inactive) with CCRF-CEM; greater than 100 µM in the test on HCT-15; > 100 µM (inactive) in the test with HT-29; > 100 µM (inactive) with MOLT-4; > 100 µM (inactive) with NCI-H23. In addition, the GI50 in the test on NCI-H460, in the test with OVCAR-3, with SF-295, in the test with SF-539, in the test with SK-MEL-28 and with SK-OV-3 was > 100 µM (inactive) in each case. Further, the GI50 with SNB-19, with TK-10, in the test with UACC-62 and with UO-31 was > 100 µM (inactive) throughout.

With `O=C(O)C1C2CC3CC2CC31` (centres undefined), the GI50 in the test on CAKI-1 was > 100 µM (inactive); in the test with CCRF-CEM, > 100 µM (inactive); with HCT-15 it was greater than 100 µM; in the test on LOX IMVI, > 100 µM (inactive); in the test on MOLT-4, > 100 µM (inactive); with NCI-H23, > 100 µM (inactive). Besides, the GI50 in the test with NCI-H460, in the test on NCI-H522, in the test with OVCAR-3, in the test with SF-295, in the test on SF-539 and with SK-MEL-28 was > 100 µM (inactive) throughout. The GI50 in the test with SK-MEL-2, in the test with SK-OV-3, in the test with SNB-19, with TK-10, with UACC-62 and with UO-31 was > 100 µM (inactive) each time.

Regarding `CCC12CC[C@H](C#N)N3CCc4c(n(c5ccccc45)C(=O)C1)C32` (some centres undefined), the GI50 in the test with CAKI-1 is 12.6 µM (inactive); in the test with CCRF-CEM it was 12.3 µM (inactive); in the test on HCT-15, 5.2 µM; with HT-29, 14.2 µM (inactive); in the test with LOX IMVI, 14.1 µM (inactive); in the test on MOLT-4, 15 µM (inactive). In addition, the GI50 in the test with NCI-H23 was 15.4 µM (inactive); with NCI-H460, 13.3 µM (inactive); with OVCAR-3 it was 13.3 µM (inactive); in the test on SF-295, 12.4 µM (inactive); in the test on SF-539, 17.5 µM (inactive); in the test with SK-MEL-28, 15.2 µM (inactive). For the same molecule, the GI50 is 14.1 µM (inactive) with SK-MEL-2; 35.3 µM (inactive) in the test with SK-OV-3; > 10 µM (inactive) in the test with SNB-19; 16.4 µM (inactive) with TK-10; 12.2 µM (inactive) with UACC-62; 3.1 µM (inactive) in the test on UO-31.

Turning to `CCOC(=O)C[C@@]12CCCNC1(C)CCc1ccccc12` (some centres undefined), the GI50 was > 100 µM (inactive) in the test on CCRF-CEM; greater than 100 µM in the test on HCT-15; > 100 µM (inactive) in the test with HT-29; > 100 µM (inactive) in the test on LOX IMVI; > 100 µM (inactive) in the test on MOLT-4; > 100 µM (inactive) in the test with NCI-H460. Moreover, the GI50 with OVCAR-3 was > 100 µM (inactive); with SF-295, 52.5 µM (inactive); with SF-539 it was > 100 µM (inactive); in the test on SK-MEL-2, > 100 µM (inactive); with SK-OV-3, > 100 µM (inactive); in the test with SNB-19, > 100 µM (inactive). The GI50 in the test with TK-10, with UACC-62 and in the test with UO-31 was > 100 µM (inactive) throughout.
